Data from patent publication US20140329863A1 (priority 2011, published 2014).
≈ marks a conversion by molar mass, not a printed value. Read-outs that look alike come from different tables or passages of the source.

Experiments:
ScN2a-c13 cells = experiment: cells; assay type: cell-based; conditions: Mus musculus; N=3; read-out: EC50 by calcein for cell viability
[1] = test system: PrP^Sc in dividing ScN2a-cl3 cells; assay type: cell-based, mouse
[2] = Hepatic microsomal stability, dog; assay type: in vitro ADME; conditions: for half-life at 1 μM: beagle, liver microsomes, pH 7.4
Experimental: These were diluted 500-fold into 1 mL of microsomal incubation mixture to yield a final concentration of 1 μM. The incubation mixture was composed of 100 mM phosphate buffer, pH 7.4, and NADPH regenerating system (BD Biosciences NADPH Regenerating System Solutions A & B). This mixture was preincubated at 37° C. for 5 min in an Eppendorf Thermo mixer, and the reaction initiated by addition of 0.5 mg (25 μl of a 20 mg/mL solution) of liver microsomes. Aliquots (100 μl) were withdrawn at 0, 5, 15, 30, and 60 min, and added to […] ACN containing internal standard. […] The percentage of solute remaining at the end of the incubation was used to determine species-specific values of scaled intrinsic clearance, hepatic clearance, and predicted hepatic extraction based upon the calculations below (Obach, 1999).
for which mg microsomal protein/gm liver was 45 for all species, and gm liver/kg body weight were 32 for dog, 88 for mouse, 40 for rat and 25 for human.
for which ER estimates the amount of compound cleared during a single pass through the liver (Low ER <0.3, moderate ER 0.3-0.7, high ER>0.7).

[3] = test system: PrP^Sc in dividing ScN2a-c13 cells; conditions: read-out: EC50 (ELISA), reduction of PrP^Sc load; dividing ScN2a-c13 cells
[4] = Single-dose pharmacokinetics in FVB mice (oral gavage, IV); conditions: for Brain exposure (AUClast) ranking: single oral dose, FVB mice
[5] = Multidose (three-day) pharmacokinetics in liquid diet in FVB mice; conditions: for concentration at 3 days: FVB, mouse, in vivo
[6] = for solubility in FaSSIF (in words): fasted-state simulated intestinal fluid; for solubility at pH 2.0 (in words): pH 2 (HCl) buffer
[7] = Table 29, 2-AMT analogs tested for potency, usually n = 3 or more
[8] = female dog microsomes, read-out: t1/2 Dog Female
[9] = PO 40 mg/kg, brain, female FVB mice
[10] = female, FVB, mouse, brain and plasma, po, 10 mg/kg
[11] = female, FVB, mouse, brain, po, 40 mg/kg
[12] = female, FVB, mouse, brain/plasma, po, 40 mg/kg
[13] = female, FVB, mouse, plasma, iv, 1 mg/kg
[14] = female, FVB, mouse, plasma, iv, 1 mg/kg, t1/2, IV 1 mg/kg, female FVB mice
[15] = female, FVB, mouse, plasma, po, 10 mg/kg
[16] = female, FVB, mouse, plasma, po, 40 mg/kg
[17] = female, FVB, mouse, plasma, po, 40 mg/kg, t1/2, PO 40 mg/kg, female FVB mice
[18] = 40 mg/kg, Brain Concentration (Css), three-day dosing in liquid diet, brain
[19] = 40 mg/kg, Plasma Concentration (Css), three-day dosing in liquid diet, plasma
[20] = 80 mg/kg, Brain Concentration (Css), three-day dosing in liquid diet, brain
[21] = 80 mg/kg, Plasma Concentration (Css), three-day dosing in liquid diet, plasma
[22] = 130 mg/kg, Brain Concentration (Css), three-day dosing in liquid diet, brain
[23] = 130 mg/kg, Plasma Concentration (Css), three-day dosing in liquid diet, plasma
[24] = 210 mg/kg, Brain Concentration (Css), three-day dosing in liquid diet, brain
[25] = 210 mg/kg, Plasma Concentration (Css), three-day dosing in liquid diet, plasma
[26] = cell culture media, plasma or biological fluid
[27] = pH 2 (HCl) buffer, pH 2, simulated gastric fluid
[28] = pH 7.4 (phosphate) buffer, pH 7.4, aqueous buffer
[29] = Brain and plasma concentrations, 40, 80, 130 and 210 mg/kg/day for 3 days
[30] = male dog microsomes, read-out: t1/2 Dog Male
[31] = IV 1 mg/kg, plasma, female FVB mice

Cc1cccc(Nc2nc(-c3ccc(-c4ccccc4)cc3)cs2)n1 [IND24, (4-Biphenyl-4-yl-thiazol-2-yl)-(6-methyl-pyridin-2-yl)-amine]
EC50 (ScN2a-c13 cells): > 10000 nM
EC50 ([1]; AMT analogs tested for potency): 1270 nM
EC50 [1, 7]: 1270 nM
half-life at 1 μM [2, 8]: 51 min
half-life at 1 μM ([2]; male dog microsomes, * extrapolated, read-out: t1/2 Dog Male (extrapolated)): 140 min
EC50 [3]: 1270 nM
AUClast [4, 9]: 9998 ± 417 ng·h/g
Kp [4, 10]: 2.6
Cmax [4, 11]: 840 ± 252 ng/g
Tmax [4, 11]: 240 min
Kp [4, 12]: 2.61
AUC(0-t) [4, 13]: 953 ± 374 ng·h/mL
Cmax [4, 13]: 856 ± 908 ng/mL
Tmax [4, 13]: 4.98 min
half-life ([4]; female, FVB, mouse, plasma, iv, 1 mg/kg, Half-life, 1 mg/kg IV, female FVB mice): 120 min
half-life [4, 14]: 129 min
bioavailability [4, 15]: 40%
AUC(0-t) [4, 16]: 3830 ± 450 ng·h/mL
Cmax [4, 16]: 569 ± 38.1 ng/mL
Tmax [4, 16]: 120 min
bioavailability [4, 16]: 40.2%
half-life [4, 17]: 279 min
Brain exposure (AUClast) ranking ([4]; brain): highest AUC values in brain
concentration at 3 days [5, 18]: 8700 ± 1460 nM
concentration at 3 days [5, 19]: 8190 ± 8090 nM
concentration at 3 days [5, 20]: 19300 ± 2280 nM
concentration at 3 days [5, 21]: 5550 ± 1180 nM
concentration at 3 days [5, 22]: 31800 ± 5460 nM
concentration at 3 days [5, 23]: 11700 ± 4850 nM
concentration at 3 days [5, 24]: 37400 ± 9060 nM
concentration at 3 days [5, 25]: 18900 ± 20500 nM
Brain concentrations ([5]; female FVB mice, 75 mg/kg, formulations containing 0.125-1.25% (v/v) PEG400): > 8000 nM

Cc1ccc(Nc2nc(-c3cc(-c4ccccc4)no3)cs2)nc1 [IND33, (5-Methyl-pyridin-2-yl)-[4-(3-phenyl-isoxazol-5-yl)-thiazol-2-yl]-amine]
EC50 ([1]; AMT analogs tested for potency): 940 nM
EC50 [1, 7]: 940 nM
solubility in FaSSIF (in words) [6]: higher solubility
solubility at pH 2.0 (in words) [6]: lower
solubility (physchem; FaSSIF): 70 µM (≈ 23.4 µg/mL)
solubility (physchem; [26]): 225 µM (≈ 75.2 µg/mL)
solubility (physchem; [27]): 1 µM (≈ 0.334 µg/mL)
solubility (physchem; [28]): < 1 µM
concentration at 3 days [5, 18]: 880 ± 680 nM
concentration at 3 days [5, 19]: 650 ± 380 nM
concentration at 3 days [5, 20]: 5390 ± 2930 nM
concentration at 3 days [5, 21]: 2850 ± 1300 nM
concentration at 3 days [5, 22]: 30000 nM
concentration at 3 days [5, 23]: 4740 ± 1310 nM
concentration at 3 days [5, 24]: 12600 ± 8620 nM
concentration at 3 days [5, 25]: 14200 ± 2090 nM
Brain Concentration (Css), 130 mg/kg ([5]; three-day dosing in liquid diet, 130 mg/kg, brain): 23300 ± 13200 nM

COc1ccc(-c2csc(Nc3ccc4ccccc4n3)n2)cc1OC [IND47, [4-(3,4-Dimethoxy-phenyl)-thiazol-2-yl]-quinolin-2-yl-amine]
EC50 ([1]; AMT analogs tested for potency): 426 nM
EC50 [1, 7]: 426 nM
solubility in FaSSIF (in words) [6]: lower solubility
solubility at pH 2.0 (in words) [6]: lower solubility
solubility (physchem; FaSSIF): 5 µM (≈ 1.82 µg/mL)
solubility (physchem; [26]): 52 µM (≈ 18.9 µg/mL)
solubility (physchem; [27]): < 1 µM
solubility (physchem; [28]): < 1 µM
concentration at 3 days [5, 18]: 400 ± 280 nM
concentration at 3 days [5, 19]: 130 ± 100 nM
concentration at 3 days [5, 21]: 30 ± 20 nM
concentration at 3 days [5, 22]: 400 ± 510 nM
concentration at 3 days [5, 23]: 60 ± 20 nM
concentration at 3 days [5, 24]: 230 ± 260 nM
concentration at 3 days [5, 25]: 120 ± 50 nM
concentration at 3 days [5, 29]: ≤ 1000 nM

Cc1ccnc(Nc2nc(-c3ccncc3)cs2)c1 [IND52, (4-Methyl-pyridin-2-yl)-(4-pyridin-4-yl-thiazol-2-yl)-amine]
EC50 (ScN2a-c13 cells): > 10000 nM
EC50 ([1]; AMT analogs tested for potency): 4950 nM
EC50 [1, 7]: 4950 nM
EC50 [3]: 4950 nM
solubility (physchem; FaSSIF): 2 µM (≈ 0.537 µg/mL)
solubility (physchem; [26]): 76 µM (≈ 20.4 µg/mL)
solubility (physchem; [27]): 215 µM (≈ 57.7 µg/mL)
solubility (physchem; [28]): 1 µM (≈ 0.268 µg/mL)
concentration at 3 days [5, 19]: 10 ± 10 nM
concentration at 3 days [5, 20]: 760 ± 1090 nM
concentration at 3 days [5, 21]: 670 ± 1000 nM
concentration at 3 days [5, 22]: 2340 ± 2130 nM
concentration at 3 days [5, 23]: 1930 ± 1580 nM
concentration at 3 days [5, 24]: 7650 ± 5570 nM
concentration at 3 days [5, 25]: 10900 ± 8440 nM
Brain Concentration (Css), 40 mg/kg ([5]; three-day dosing in liquid diet, 40 mg/kg, brain): no measurable brain concentrations

Cc1ccnc(Nc2nc(-c3ccc(-c4ccccn4)s3)cs2)c1 [IND81, (4-Methyl-pyridin-2-yl)-[4-(5-pyridin-2-yl-thiophen-2-yl)-thiazol-2-yl]-amine]
EC50 (ScN2a-c13 cells): > 10000 nM
half-life at 1 μM [2, 8]: 26 min
half-life at 1 μM [2, 30]: 23 min
solubility in FaSSIF (in words) [6]: lower solubility
solubility at pH 2.0 (in words) [6]: higher solubility
solubility (physchem; FaSSIF): 3 µM (≈ 1.05 µg/mL)
solubility (physchem; [26]): 207 µM (≈ 72.5 µg/mL)
solubility (physchem; [27]): 78 µM (≈ 27.3 µg/mL)
solubility (physchem; [28]): < 1 µM
AUClast [4, 9]: 1592 ± 794 ng·h/g
Kp [4, 10]: 5.5
Cmax [4, 11]: 568 ± 186 ng/g
Tmax [4, 11]: 30 min
Kp [4, 12]: 5.53
AUC(0-t) [4, 13]: 106 ± 12.4 ng·h/mL
Cmax [4, 13]: 183 ± 96.6 ng/mL
Tmax [4, 13]: 4.98 min
half-life [4, 14]: 70.2 min
bioavailability [4, 15]: 25 to 27%
AUC(0-t) [4, 16]: 288 ± 136 ng·h/mL
Cmax [4, 16]: 152 ± 10.6 ng/mL
Tmax [4, 16]: 30 min
bioavailability [4, 16]: 27.2%
half-life [4, 17]: 58.2 min
Brain exposure (AUClast) ranking ([4]; brain): highest AUC values in brain

c1ccc2cc(Nc3nc(-c4ccncc4)cs3)ncc2c1 [IND85, Isoquinolin-3-yl-(4-pyridin-4-yl-thiazol-2-yl)-amine]
EC50 ([1]; AMT analogs tested for potency): 307 nM
EC50 [1, 7]: 307 nM
solubility in FaSSIF (in words) [6]: lower solubility
solubility at pH 2.0 (in words) [6]: higher solubility
solubility (physchem; FaSSIF): 3 µM (≈ 0.913 µg/mL)
solubility (physchem; [26]): 116 µM (≈ 35.3 µg/mL)
solubility (physchem; [27]): 196 µM (≈ 59.7 µg/mL)
solubility (physchem; [28]): < 1 µM
Brain Cmax/EC50 ratio, 40 mg/kg ([4]; single oral dose 40 mg/kg): better Cmax:EC50 ratio at either dose
concentration at 3 days [5, 18]: 20 ± 30 nM
concentration at 3 days [5, 20]: 80 ± 30 nM
concentration at 3 days [5, 22]: 40 ± 30 nM
concentration at 3 days [5, 24]: 100 ± 70 nM
concentration at 3 days [5, 29]: ≤ 1000 nM

C(=N\Nc1ccc(-c2cnco2)cc1)/c1ccncc1 [IND54304, reference compound]
half-life at 1 μM [2, 8]: 16 min
half-life at 1 μM [2, 30]: 20 min
Hepatic Extraction Ratio Dog Female ([2]; female dog microsomes): 0.80
Hepatic Extraction Ratio Dog Male ([2]; male dog microsomes): 0.79
EC50 [3]: 400 nM
AUClast [4, 31]: 219 ± 33.0 ng·h/mL
Cmax [4, 31]: 466 ± 37.4 ng/mL
Tmax [4, 31]: 4.98 min
t1/2 [4, 31]: 12.6 min
% F ([4]; PO 40 mg/kg vs IV 1 mg/kg, plasma, female FVB mice): 24.8%
AUClast [4, 9]: 282 ± 27.2 ng·h/g
Cmax [4, 11]: 123 ± 42.7 ng/g
Tmax [4, 11]: 120 min
Kp [4, 12]: 0.52
AUC(0-t) [4, 16]: 544 ± 16.8 ng·h/mL
Cmax [4, 16]: 220 ± 99.4 ng/mL
Tmax [4, 16]: 30 min
half-life [4, 17]: 60 min
